Assays:
Assay in all cases: relative viability (nuclei count vs DMSO), 5 days (fraction); higher = more cells survive
FG-4592 + Vorinostat = compound: Cc1nc(C(=O)NCC(=O)O)c(O)c2ccc(Oc3ccccc3)cc12 [FG-4592] + O=C(CCCCCCC(=O)Nc1ccccc1)NO [Vorinostat] (partner 1 µM)
Method in brief: (§1)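 One day after seeding in 1536-well plates, lung cancer cell lines were dosed by pin tool. Dosing was either single-drug or a fixed anchor-drug dose plus five library-drug doses (not always all listed) in √10 steps. After 5 days, nuclei were stained in one fix-and-stain step and counted on 4× images, and relative viability is the nuclei count of treated wells over that of vehicle wells, given as the median of duplicate plates.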

IU1-47 + Crizotinib = compound: CC1=CC(=C(N1C2=CC=C(C=C2)Cl)C)C(=O)CN3CCCCC3 [IU1-47] + C[C@@H](Oc1cc(-c2cnn(C3CCNCC3)c2)cnc1N)c1c(Cl)ccc(F)c1Cl [Crizotinib] (partner 1 µM)
Method in brief: as §1

IU1-47 + Decitabine = compound: CC1=CC(=C(N1C2=CC=C(C=C2)Cl)C)C(=O)CN3CCCCC3 [IU1-47] + Nc1ncn([C@H]2C[C@H](O)[C@@H](CO)O2)c(=O)n1 [Decitabine] (partner 2 µM)
Method in brief: as §1

FG-4592 + Tozasertib = compound: Cc1nc(C(=O)NCC(=O)O)c(O)c2ccc(Oc3ccccc3)cc12 [FG-4592] + Cc1cc(Nc2cc(N3CCN(C)CC3)nc(Sc3ccc(NC(=O)C4CC4)cc3)n2)n[nH]1 [Tozasertib] (partner 0.1 µM)
Method in brief: as §1

Cell Line	relative viability (FG-4592 + Vorinostat; first compound 0.08 µM)	relative viability (FG-4592 + Vorinostat; first compound 0.253 µM)	relative viability (FG-4592 + Vorinostat; first compound 0.8 µM)	relative viability (FG-4592 + Vorinostat; first compound 2.53 µM)	relative viability (FG-4592 + Vorinostat; first compound 8 µM)	relative viability (IU1-47 + Crizotinib; first compound 0.08 µM)	relative viability (IU1-47 + Crizotinib; first compound 0.253 µM)	relative viability (IU1-47 + Crizotinib; first compound 0.8 µM)	relative viability (IU1-47 + Crizotinib; first compound 2.53 µM)	relative viability (IU1-47 + Crizotinib; first compound 8 µM)	relative viability (IU1-47 + Decitabine; first compound 0.08 µM)	relative viability (IU1-47 + Decitabine; first compound 0.253 µM)	relative viability (IU1-47 + Decitabine; first compound 0.8 µM)	relative viability (IU1-47 + Decitabine; first compound 2.53 µM)	relative viability (IU1-47 + Decitabine; first compound 8 µM)	relative viability (FG-4592 + Tozasertib; first compound 0.08 µM)	relative viability (FG-4592 + Tozasertib; first compound 0.253 µM)	relative viability (FG-4592 + Tozasertib; first compound 0.8 µM)	relative viability (FG-4592 + Tozasertib; first compound 2.53 µM)	relative viability (FG-4592 + Tozasertib; first compound 8 µM)
NCI-H661	0.778	0.827	0.832	0.755	0.839	1.21	0.975	0.981	1.06	1.12	0.531	0.575	0.596	0.556	0.503	0.365	0.371	0.347	0.359	0.343
NCI-H1734	0.762	0.802	0.616	0.713	0.852	0.658	0.688	0.646	–	0.647	0.6	0.541	0.548	0.5	0.419	0.284	0.267	0.256	0.252	0.217
LXF-289	0.776	0.742	0.857	0.736	0.797	0.854	0.858	0.82	0.796	0.817	0.377	0.367	0.397	0.367	0.346	0.186	0.16	0.214	0.177	0.205
H3255	0.89	0.684	0.721	0.693	0.84	0.989	1.07	0.908	0.778	0.807	0.696	0.681	0.689	–	0.453	0.718	0.626	0.608	0.601	0.642
201T	0.905	0.933	0.807	0.972	0.993	1.08	1.04	1.05	–	1.04	0.891	0.864	0.943	0.867	0.856	0.856	0.965	1.06	0.998	0.946
NCI-H2126	0.709	0.726	0.594	0.509	0.73	1.08	1.08	1.03	0.813	0.972	0.564	0.584	0.599	0.544	0.583	0.842	0.775	0.782	0.721	0.575
HOP-62	0.61	0.686	0.451	0.486	0.816	0.918	0.873	0.901	0.441	0.971	0.233	0.218	0.224	0.247	0.208	0.406	0.393	0.381	0.367	0.41
NCI-H520	0.693	0.709	0.635	0.702	0.673	0.815	0.984	0.627	0.8	0.499	0.484	0.507	0.469	0.513	0.416	–	0.479	–	0.479	0.391
NCI-H1755	0.694	0.761	0.472	0.69	0.747	0.883	0.927	0.899	0.895	0.756	0.712	0.694	0.653	0.797	0.766	0.56	0.51	0.568	0.678	0.655
NCI-H2023	0.631	0.514	0.572	0.553	0.543	0.663	0.67	0.645	0.78	0.581	0.182	0.212	0.215	0.248	0.225	0.354	0.357	0.374	0.348	0.258
NCI-H2009	0.823	0.694	0.88	0.671	0.727	1	1.1	0.933	1.1	1.05	0.36	0.448	0.366	0.382	0.406	0.715	0.58	0.758	0.713	0.655
